Measured values published in ChEMBL document CHEMBL1201862, “PubChem BioAssay data set” (2004).
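Interpolation was linear, between the two tested concentrations surrounding the appropriate level; five concentrations were tested over 48 hours in 96-well plates. GI50 marks 50% less growth.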 Calls of active or inactive are those of the source. Rule as the data show it: active = GI50 up to about 1.1 µM and inactive = higher.

What was measured:
Experiment in all cases: DTP human tumour cell line panel, 48 h
Hs-578T = tested on: Hs-578T
NCI-H226 = tested on: NCI-H226
HCT-15 = tested on: HCT-15
RPMI-8226 = tested on: RPMI-8226
K562 = tested on: K562
SNB-19 = tested on: SNB-19
T47D = tested on: T47D
PC-3 = tested on: PC-3
786-0 = tested on: 786-0
Malme-3M = tested on: Malme-3M
HL-60 = tested on: HL-60
IGROV-1 = tested on: IGROV-1
HOP-92 = tested on: HOP-92
SW-620 = tested on: SW-620
UACC-257 = tested on: UACC-257
SN12C = tested on: SN12C
SF-539 = tested on: SF-539
SK-OV-3 = tested on: SK-OV-3
UO-31 = tested on: UO-31
UACC-62 = tested on: UACC-62

| SMILES | GI50 (Hs-578T) | GI50 (NCI-H226) | GI50 (HCT-15) [µM] | GI50 (RPMI-8226) | GI50 (K562) | GI50 (SNB-19) | GI50 (T47D) | GI50 (PC-3) | GI50 (786-0) | GI50 (Malme-3M) | GI50 (HL-60) | GI50 (IGROV-1) | GI50 (HOP-92) | GI50 (SW-620) | GI50 (UACC-257) | GI50 (SN12C) | GI50 (SF-539) | GI50 (SK-OV-3) | GI50 (UO-31) | GI50 (UACC-62) |
| --- | --- | --- | --- | --- | --- | --- | --- | --- | --- | --- | --- | --- | --- | --- | --- | --- | --- | --- | --- | --- |
| CC1=Nn2c(nc3sc4c(c3c2=O)CCCC4)SC1 | > 90.4 µM (inactive) | > 100 µM (inactive) | 52.6 | 69.2 µM (inactive) | 39.9 µM (inactive) | 90.2 µM (inactive) | 58.5 µM (inactive) | 63 µM (inactive) | > 81.3 µM (inactive) | > 94.2 µM (inactive) | 34.8 µM (inactive) | > 76.4 µM (inactive) | 36.1 µM (inactive) | > 57.8 µM (inactive) | > 100 µM (inactive) | > 78.5 µM (inactive) | > 48.6 µM (inactive) | > 100 µM (inactive) | 37.8 µM (inactive) | 76.4 µM (inactive) |
| O=c1[nH]c(N/N=C\C(O)C(O)C(O)CO)nc2ccccc12 (centres undefined) | > 100 µM (inactive) | > 100 µM (inactive) | > 100 | > 100 µM (inactive) | > 100 µM (inactive) | > 100 µM (inactive) | > 100 µM (inactive) | > 100 µM (inactive) | > 100 µM (inactive) |  | > 100 µM (inactive) | > 100 µM (inactive) | > 100 µM (inactive) | > 100 µM (inactive) | > 100 µM (inactive) | > 100 µM (inactive) | > 100 µM (inactive) | > 100 µM (inactive) | > 100 µM (inactive) | > 100 µM (inactive) |
| COc1ccc2c(=O)c3cc([N+](=O)[O-])ccc3n(C)c2c1 | > 100 µM (inactive) | > 100 µM (inactive) | > 100 | > 100 µM (inactive) | > 100 µM (inactive) | > 100 µM (inactive) | > 100 µM (inactive) | > 100 µM (inactive) | > 100 µM (inactive) | > 100 µM (inactive) | > 100 µM (inactive) | > 100 µM (inactive) | > 100 µM (inactive) | > 100 µM (inactive) | > 100 µM (inactive) | > 100 µM (inactive) | > 100 µM (inactive) |  | > 100 µM (inactive) | > 100 µM (inactive) |
| C(=N\N=C1NCCN1)/c1ccc2ccccc2c1 | 19.5 µM (inactive) | 21 µM (inactive) | 18.2 | 12 µM (inactive) | 11.6 µM (inactive) |  | 23.1 µM (inactive) | 14.3 µM (inactive) | 12.8 µM (inactive) | 14.2 µM (inactive) | 8.67 µM (inactive) | 9.95 µM (inactive) | 0.174 µM (active) | 16.3 µM (inactive) | 13.2 µM (inactive) | 16.9 µM (inactive) | 19 µM (inactive) | 10.8 µM (inactive) | 3.67 µM (inactive) | 14.4 µM (inactive) |
| O=C(ON=C1c2ccccc2C(Br)C(Br)c2ccccc21)c1ccccc1 (centres undefined) | 21.5 µM (inactive) | 18 µM (inactive) | 17.6 | 4.57 µM (inactive) | 2.95 µM (inactive) | 20.7 µM (inactive) | 9.57 µM (inactive) | 19.8 µM (inactive) | 9.62 µM (inactive) | 20.7 µM (inactive) | 0.59 µM (active) | 2.44 µM (inactive) | 1.17 µM (inactive) | 8.49 µM (inactive) | 15.6 µM (inactive) | 20.7 µM (inactive) | 7.01 µM (inactive) | 18.6 µM (inactive) | 3.79 µM (inactive) | 16.7 µM (inactive) |
| Cc1cc(=O)[nH]c2cc(NC(=O)C(CCCNC(=N)N)NC(=O)OCc3ccccc3)ccc12 (centres undefined) | > 100 µM (inactive) | > 100 µM (inactive) | > 100 |  | > 100 µM (inactive) | > 100 µM (inactive) | > 100 µM (inactive) | > 100 µM (inactive) | > 100 µM (inactive) | > 100 µM (inactive) | > 100 µM (inactive) | > 100 µM (inactive) | 78.5 µM (inactive) | > 100 µM (inactive) | > 100 µM (inactive) | > 100 µM (inactive) | > 100 µM (inactive) | 4.28 µM (inactive) | > 100 µM (inactive) | > 100 µM (inactive) |
| O=C1CC(C(O)C(O)C(O)CO)CC(=O)N1 (centres undefined) | > 100 µM (inactive) | > 100 µM (inactive) | > 100 | > 100 µM (inactive) | > 100 µM (inactive) | > 100 µM (inactive) | > 100 µM (inactive) | > 100 µM (inactive) | > 100 µM (inactive) | > 100 µM (inactive) | > 100 µM (inactive) | > 100 µM (inactive) | > 100 µM (inactive) | > 100 µM (inactive) | > 100 µM (inactive) | > 100 µM (inactive) | > 100 µM (inactive) |  | > 100 µM (inactive) |  |
